Experiment [1] concerns the target T1, Proto-oncogene tyrosine-protein kinase Src (Homo sapiens, UniProt P12931). Nature of the experiment: Binding affinity was determined on Src protein tyrosine kinase SH2 domain using scintillation proximity assay (SPA).
Experiment [2] addresses T1, Proto-oncogene tyrosine-protein kinase Src. Nature of the experiment: Binding affinity was determined on Src protein tyrosine kinase SH2 domain using fluorescence polarization assay with 2% DMSO in buffer solution.
Experiment [3] has the same target. As to the kind of experiment: Binding affinity for Src protein tyrosine kinase SH2 domain.
Experiment [4] has the same target. Nature of the experiment: Binding affinity for Src protein tyrosine kinase SH2 domain using fluorescence polarization assay with 20% DMSO in buffer solution.

pIC50: −log10 of the molar value.

T1 sequence (P12931 2-536 limits assumed): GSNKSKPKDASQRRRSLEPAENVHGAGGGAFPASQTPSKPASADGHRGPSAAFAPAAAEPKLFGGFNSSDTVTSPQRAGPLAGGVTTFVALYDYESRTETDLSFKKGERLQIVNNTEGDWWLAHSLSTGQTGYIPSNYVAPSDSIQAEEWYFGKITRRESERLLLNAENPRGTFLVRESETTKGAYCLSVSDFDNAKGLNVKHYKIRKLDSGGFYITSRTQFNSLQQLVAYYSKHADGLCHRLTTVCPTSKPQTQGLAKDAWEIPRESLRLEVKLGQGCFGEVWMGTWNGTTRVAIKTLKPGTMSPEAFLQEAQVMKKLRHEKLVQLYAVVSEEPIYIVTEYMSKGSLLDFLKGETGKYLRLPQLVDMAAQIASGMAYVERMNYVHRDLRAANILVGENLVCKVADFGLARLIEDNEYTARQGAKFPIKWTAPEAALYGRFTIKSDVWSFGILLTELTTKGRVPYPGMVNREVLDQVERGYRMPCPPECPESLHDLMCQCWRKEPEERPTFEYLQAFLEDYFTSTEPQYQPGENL

In experiment [1], `COC(=O)c1cccc(CN2CCSC[C@H](NC(=O)[C@H](Cc3ccc(OP(=O)(O)O)cc3)NC(C)=O)C2=O)c1` had a pIC50 of 6.89.
On the same count and under the same terms, in the case of `CC(=O)N[C@@H](Cc1ccc(OP(=O)(O)O)cc1)C(=O)N[C@H]1CSCCN(Cc2cccc(-c3ccccc3C#N)c2)C1=O` it was 6.52.
`COc1ccc(C2Sc3ccccc3N(CC(=O)NCc3cccc4ccccc34)C(=O)C2NC(=O)Cc2ccc(OP(=O)(O)OCc3ccccc3)cc2)cc1` (stereo not drawn): the pIC50 in experiment [2] was 5.30.
On the same count and under the same terms, in the case of `COc1ccc(C2Sc3ccccc3N(CC(=O)NCc3cccc4ccccc34)C(=O)C2NC(=O)c2cc3cc(OP(=O)(O)OCc4ccccc4)ccc3[nH]2)cc1` (stereo not drawn) it was 4.49.
Consider `CC(=O)N[C@@H](Cc1ccc(OP(=O)(O)O)cc1)C(=O)N[C@H]1CSCCN(CC(=O)c2ccc(N(C)C)cc2)C1=O`, for which the pIC50 in experiment [1] is 5.03.
Take `CC(C)(C)OC(=O)N[C@@H](Cc1ccc(OP(=O)(O)O)cc1)C(=O)NC1CSCCN(CCCC2CCCCC2)C1=O` (stereo partly drawn): the pIC50 in experiment [3] is 5.85; in experiment [2] it was 3.94.
In experiment [2], `COc1ccc(C2Sc3ccccc3N(CC(=O)NCc3cccc4ccccc34)C(=O)C2NC(=O)c2ccc(OP(=O)(O)OCc3ccccc3)cc2)cc1` (stereo not drawn) had a negative-log IC50 (pIC50) of 4.70.
In experiment [2], `COc1ccc(C2Sc3ccccc3NC(=O)C2NC(=O)[C@H](Cc2ccc(OP(=O)(O)OCc3ccccc3)cc2)NC(=O)OC(C)(C)C)cc1` (stereo partly drawn) had a negative logarithm of the IC50 (pIC50) of 3.06.
Still for that read-out and setting: in the case of `COc1ccc(C2Sc3ccccc3N(CC(=O)NCc3cccc4ccccc34)C(=O)C2NC(=O)CCc2ccc(OP(=O)(O)OCc3ccccc3)cc2)cc1` (stereo not drawn) it was 3.47.
The same measure, in the same setting: as for `CC(=O)N[C@@H](Cc1ccc(OP(=O)(O)O)cc1)C(=O)N[C@H]1CSCCN(Cc2cccc(C(=O)c3ccccc3)c2)C1=O`, the figure is 5.80.
In the case of `COc1ccc(C2Sc3ccccc3N(CC(=O)Nc3ccc(Oc4ccccc4)cc3)C(=O)C2NC(=O)[C@H](Cc2ccc(OP(=O)(O)OCc3ccccc3)cc2)NC(=O)OC(C)(C)C)cc1` (stereo partly drawn), in experiment [2], the pIC50 was 4.54.
Turning to `COc1ccc(C2Sc3ccccc3N(C(C(=O)Nc3cccc4ccccc34)c3ccccc3)C(=O)C2NC(=O)[C@H](Cc2ccc(OP(=O)(O)OCc3ccccc3)cc2)NC(=O)OC(C)(C)C)cc1` (stereo partly drawn), the pIC50 in experiment [2] is 4.64.
In the case of `CC[C@H](C)[C@H](NC(=O)[C@H](CCC(=O)O)NC(=O)[C@H](CCC(=O)O)NC(=O)[C@@H](N)Cc1ccc(OP(=O)(O)O)cc1)C(=O)O`, the pIC50 in experiment [3] is 6.82; in experiment [4], 5.30; in experiment [2] it was 5.19.
In turn, `CC(=O)N[C@@H](Cc1ccc(OP(=O)(O)O)cc1)C(=O)N[C@H]1CSCCN(Cc2ccc3c(c2Cl)OCO3)C1=O` had a pIC50 in experiment [1] of 5.92.
In turn, `COc1ccc(C2Sc3ccccc3N(CC(=O)NCc3cccc4ccccc34)C(=O)C2NC(=O)[C@H](Cc2ccc(OP(=O)(O)OCc3ccccc3)cc2)NC(=O)OC(C)(C)C)cc1` (stereo in doubt; 3b) had a pIC50 in experiment [2] of 3.93.
Same read-out and setting: as for `COc1ccc(C2Sc3ccccc3N(Cc3ccc(-c4ccccc4C(=O)OC(C)(C)C)cc3)C(=O)C2NC(=O)[C@H](Cc2ccc(OP(=O)(O)OCc3ccccc3)cc2)NC(=O)OC(C)(C)C)cc1` (stereo partly drawn), the figure is 4.74.
Regarding `COc1ccc(C2Sc3ccccc3N(CC(=O)Nc3cccc4ccccc34)C(=O)C2NC(=O)[C@H](Cc2ccc(OP(=O)(O)OCc3ccccc3)cc2)NC(=O)OC(C)(C)C)cc1` (stereo in doubt; 3n), in experiment [2], the pIC50 is 4.64.
As for `CC(C)(C)OC(=O)N[C@H](Cc1ccc(OP(=O)(O)O)cc1)C(=O)NC1CSc2ccccc2N(CCCC2CCCCC2)C1=O` (stereo partly drawn), the pIC50 in experiment [3] was 4.74; in experiment [2], 3.37.
In experiment [2], `COc1ccc(C2Sc3ccccc3N(CC(=O)Nc3ccccc3OC)C(=O)C2NC(=O)[C@H](Cc2ccc(OP(=O)(O)OCc3ccccc3)cc2)NC(=O)OC(C)(C)C)cc1` (stereo partly drawn) gave a pIC50 of 4.02.
The same measure, in the same setting: in the case of `CC(=O)N[C@@H](Cc1ccc(OP(=O)(O)O)cc1)C(=O)N[C@H]1CSCCN(Cc2cccc(C(F)(F)F)c2)C1=O` it was 5.80.
Still for that read-out and setting: as for `COc1ccc(C2Sc3ccccc3N(CC(=O)NCc3cccc4ccccc34)C(=O)C2NC(=O)[C@H](Cc2ccc(OP(=O)(O)OCc3ccccc3)cc2)NC(=O)OC(C)(C)C)cc1` (stereo in doubt; 3a), the figure is 3.89; as for `COc1ccc(C2Sc3ccccc3N(CC(=O)Nc3cccc4ccccc34)C(=O)C2NC(=O)[C@H](Cc2ccc(OP(=O)(O)OCc3ccccc3)cc2)NC(=O)OC(C)(C)C)cc1` (stereo in doubt; 3m), 4.59.
As to `CC(C)(C)OC(=O)N[C@@H](Cc1ccc(OP(=O)(O)OCc2ccccc2)cc1)C(=O)NC1CSc2ccccc2N(CCCC2CCCCC2)C1=O` (stereo partly drawn), the pIC50 is 4.89 in experiment [3], 4.06 in experiment [4] and 4.59 in experiment [2].
`COc1ccc(C2Sc3ccccc3N(CC(=O)NCc3cccc4ccccc34)C(=O)C2NC(=O)c2ccc3cc(OP(=O)(O)OCc4ccccc4)ccc3c2)cc1` (stereo not drawn): the negative-log IC50 (pIC50) in experiment [2] is 4.64.
On the same count and under the same terms, as for `COc1ccc(C2Sc3ccccc3N(CC(=O)Nc3cccc4ccccc34)C(=O)C2NC(=O)[C@H](Cc2ccc(OP(=O)(O)OCc3ccccc3)cc2)NC(=O)OC(C)(C)C)cc1` (stereo in doubt; 3l), the figure is 3.88; as for `COc1ccc(C2Sc3ccccc3N(CC(=O)Nc3cccc4ccccc34)C(=O)C2NC(=O)[C@H](Cc2ccc(OP(=O)(O)OCc3ccccc3)cc2)NC(=O)OC(C)(C)C)cc1` (stereo in doubt; 3c), 3.72.
`CC(=O)N[C@@H](Cc1ccc(OP(=O)(O)O)cc1)C(=O)N[C@H]1CSCCN(Cc2ccc(-c3ccccc3)cc2)C1=O` gave a pIC50 in experiment [1] of 7.05.
`COc1ccc(C2Sc3ccccc3N(CC(=O)Nc3cccc(Oc4ccccc4)c3)C(=O)C2NC(=O)[C@H](Cc2ccc(OP(=O)(O)OCc3ccccc3)cc2)NC(=O)OC(C)(C)C)cc1` (stereo partly drawn) had a pIC50 in experiment [2] of 4.85.
Same read-out and setting: in the case of `CC(=O)N[C@@H](Cc1ccc(OP(=O)(O)O)cc1)C(=O)N[C@H]1CSCCN(Cc2cccc(OC(F)(F)F)c2)C1=O` it was 6.40.
`COc1ccc(C2Sc3ccccc3N(CCCC3CCCCC3)C(=O)C2NC(=O)[C@H](Cc2ccc(OP(=O)(O)OCc3ccccc3)cc2)NC(=O)OC(C)(C)C)cc1` (stereo partly drawn): the figures for the pIC50 in experiment [3], in experiment [4] and in experiment [2] were < 4.00, 4.55 and 5.19, respectively.
`COc1ccc(C2Sc3ccccc3N(Cc3ccccc3)C(=O)C2NC(=O)[C@H](Cc2ccc(OP(=O)(O)OCc3ccccc3)cc2)NC(=O)OC(C)(C)C)cc1` (stereo partly drawn) showed a pIC50 in experiment [2] of 4.34.
Same read-out and setting: in the case of `COc1ccc(C2Sc3ccccc3N(CC(=O)NCc3cccc4ccccc34)C(=O)C2NC(=O)c2ccc3c(Cl)c(OP(=O)(O)OCc4ccccc4)ccc3c2)cc1` (stereo not drawn) it was 4.57.
Take `CC(C)(C)OC(=O)N[C@@H](Cc1ccc(OP(=O)(O)O)cc1)C(=O)NC1CSc2ccccc2N(CCCC2CCCCC2)C1=O` (stereo partly drawn): the pIC50 was 6.00 in experiment [3], 4.96 in experiment [4] and 5.00 in experiment [2].

Source of the values: ChEMBL document CHEMBL1133907, “Discovery of thioazepinone ligands for Src SH2: from non-specific to specific binding” (Bioorg Med Chem Lett, 2001).
